In the test the target is T1, muscle glycogen phosphorylase b (Mus musculus, UniProt Q9WUB3).
T1 construct: made in house; host or cells: E. coli
The experiment in a line: Glycogen phosphorylase assay. The class given is biochemical. To be noted: concentrations up to 100 μM; data not shown. The text has this: Supplemental Experimental Procedures:
Materials. Compounds 2 and 13 were synthesised by PeakDale Molecular and Natalia Shpiro (MRC-PPU, Dundee), respectively, as described previously (Gomez-Galeno, et al., 2010).
A769662 was from Selleck Chemicals and AICAR from Toronto Research Chemicals. Mouse FBP1, PYGM and PFK1 (muscle isoform) were cloned, expressed and purified from E.coli using standard techniques. AMPD was purified from chicken muscle (Smiley, et al., 1967).
PP2Cα expressed in E.coli was from the Division of Signal Transduction Therapy (DSTT, Dundee). Peptides were synthesised by GL Biochem (Shanghai). [γ-32P]-ATP, [1-14C]-acetic acid and [9,10-3H(N)]-palmitic acid were from PerkinElmer. pS79 ACC1 (#3661), ACC1 […]
antibodies were purchased from Cell Signaling Technology. Anti-AMPKα1 (07-350) and AMPKα2 (07-363) used for immunoblotting were from Merck-Millipore. Anti-AMPKγ1 was from Origene (clone Y308). Anti-AMPKγ2 was from Epitomics (S1562). Anti-tubulin (B-5-1-2), anti-FLAG (F7425) and anti-FLAG M2 agarose were from Sigma. Anti-HA (HA.11) was from Covance Research Products. AMPKα1/2 antibodies used for immunoprecipitation kinase assays were described previously (Sakamoto, et al., 2006). […]
AMPK preparations. […] Isolated human AMPKα subunits were expressed as N-terminal GST-fusions in E.coli and activated as described for heterotrimeric complexes. […]

The results in this text go back to paper PMC4104029, “Mechanism of Action of Compound-13: An α1-Selective Small Molecule Activator of AMPK” (Chemistry & Biology, 2014).

T1 sequence (Q9WUB3 whole entry): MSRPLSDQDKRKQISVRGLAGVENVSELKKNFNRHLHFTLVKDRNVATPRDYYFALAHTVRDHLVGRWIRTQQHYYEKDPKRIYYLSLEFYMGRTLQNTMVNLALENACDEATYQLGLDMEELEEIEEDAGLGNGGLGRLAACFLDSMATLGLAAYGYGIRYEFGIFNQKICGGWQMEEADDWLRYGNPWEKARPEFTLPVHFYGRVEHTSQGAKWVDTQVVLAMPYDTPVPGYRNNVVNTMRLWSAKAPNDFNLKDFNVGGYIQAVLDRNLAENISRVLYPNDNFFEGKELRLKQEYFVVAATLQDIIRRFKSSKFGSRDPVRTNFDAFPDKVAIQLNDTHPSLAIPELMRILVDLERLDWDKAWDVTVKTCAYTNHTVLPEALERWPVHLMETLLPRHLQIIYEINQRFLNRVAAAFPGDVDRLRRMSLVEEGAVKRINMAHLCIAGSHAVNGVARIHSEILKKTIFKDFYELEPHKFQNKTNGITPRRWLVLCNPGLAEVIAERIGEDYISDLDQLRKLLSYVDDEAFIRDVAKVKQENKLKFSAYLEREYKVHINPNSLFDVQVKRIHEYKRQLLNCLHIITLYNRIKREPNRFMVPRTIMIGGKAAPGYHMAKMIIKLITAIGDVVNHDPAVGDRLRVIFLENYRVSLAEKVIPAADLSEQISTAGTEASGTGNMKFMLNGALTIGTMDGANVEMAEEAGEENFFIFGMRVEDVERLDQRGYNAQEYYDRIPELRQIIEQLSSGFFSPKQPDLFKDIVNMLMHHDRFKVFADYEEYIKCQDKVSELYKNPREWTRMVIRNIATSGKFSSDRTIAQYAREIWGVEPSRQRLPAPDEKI

Turning to `O=P(O)(O)c1ccc(-c2cc(O)on2)o1` [Compound C2, 5-(5-hydroxyl-isoxazol-3-yl)-furan-2-phosphonic acid], the “effect on enzyme activity” value is “None of these enzymes were affected”.
